US4612322A, “Azole type dioxolane derivatives” (Shionogi & Co., Ltd., priority 1983, dated 1986)
Converted amounts (≈) assume the structure as drawn.

How the values were obtained:
Candida albicans KE-2 [1] = experiment: Test on inhibition against formation of the pseudohyphae in Candida albicans; format: cell-based; conditions: KE2; Candida albicans KE-2, 1×10^6 cells/ml, Eagle broth + 20% bovine serum, 37° C., 18 hours; read-out: Inhibitory concentration against pseudohyphae formation
Protocol: To Eagle MEN broth (Nissan 2, Nissui Seiyaku Co., Ltd.) was added 20% bovine serum and inoculated Candida albicans KE-2 yeast cells at rate of 1×10^6 cells/ml (final inoculum size), and each test compound was added thereto in two-fold serial dilution method. After termination of cultivation at 37° C. for 18 hours, each organism of the serial dilution was smeared and fixed on a slide glass and stained by Giemsa's staining, and occurrence of the pseudohyphae was observed under a microscope. Minimum concentration which could inhibit the formation of pseudohyphae was regarded as the inhibitory concentration of the compound against pseudohyphae formation.

Trichophyton asteroides = experiment: Antimycotic test against Trichophyton asteroides (in vitro, Sabouraud's dextrose broth); format: cell-based; conditions: read-out: Minimum Inhibitory Concentration (MIC)
Source text: Sabouraud's dextrose broth* was used as culture medium.

Candida albicans KE-2 [2] = experiment: Therapeutic effect against experimental candidasis in mice; format: in vivo, Jcl-ICR female mice; conditions: 15th day from infection; 25 mg/Kg oral, twice per day for 5 days; 5×10^5 Candida albicans KE-2 cells i.v.; eight mice; control 0
Protocol: Candida albicans KE-2 was cultured in a Sabouraud's dextrose agar at 28° C. for 48 hours, and the resulting culture was suspended in the Sabouraud's dextrose broth. The resulting cells (5×10^5) were intravenously administered at the tail of Jcl-ICR female mice (4 weeks age, body weight: 18-20 g). Each test compound suspended in 2% gum-arabic was orally administered at a dose of 25 mg/Kg twice per day for 5 days; on the first day, the test compound is administered twice, i.e., immediately after the infection and 2 hours later; on the second day or later, 24 hours after the administration of the previous day respectively. After the infection, no test compound was administered to a control group. Eight mice were employed in the control group and the test groups to which the test compound was administered The therapuetic effect was evaluated on the survival rate at the 15th day from the day of infection; the result is shown below.

[3] = in vivo, po; cited from earlier work

Row | MIC (Trichophyton asteroides) [µg/mL] | Compound | minimal effective concentration (Candida albicans KE-2 [1]) [µg/mL] | Survival rate (Candida albicans KE-2 [2]) [%] | adverse reactions [3]
1 |  | O=C1OC(c2ccccc2Cl)C(Cn2cncn2)(c2ccccc2Cl)O1 (stereo not shown) [Compound 7] | 0.31 |  | 
2 | 0.1 (≈ 0.254 µM) | Fc1ccc(C2OCOC2(Cn2cncn2)c2ccc(Cl)cc2Cl)cc1 (stereo not shown) [Compound 34] | 0.31 |  | 
3 | 0.1 (≈ 0.257 µM) | O=C1OC(c2ccccc2)C(Cn2ccnc2)(c2ccc(Cl)cc2Cl)O1 (stereo not shown) [Compound 23] | 0.16 |  | 
4 | 3.1 (≈ 8.7 µM) | CC(C)C1OC(=O)OC1(Cn1cncn1)c1ccc(Cl)cc1Cl (stereo not shown) [Compound 2] | 0.63 | 100 | 
5 | 0.2 (≈ 0.65 µM) | CCCC1OCOC1(Cn1cncn1)c1ccc(Cl)cc1 (stereo not shown) [Compound 33] | 0.16 |  | 
6 | 3.1 (≈ 8.68 µM) | O=C1OC(c2ccc(F)cc2)C(Cn2cncn2)(c2ccc(F)cc2)O1 (stereo not shown) [Compound 8] |  |  | 
7 |  | CC(=O)N1CCN(c2ccc(OCC3COC(Cn4ccnc4)(c4ccc(Cl)cc4Cl)O3)cc2)CC1 (stereo not shown) [Ketoconazole] |  |  | hepatic dysfunction
8 |  | O=C1OC(c2ccc(Cl)cc2Cl)C(Cn2cncn2)(c2ccc(Cl)cc2)O1 (stereo not shown) [Compound 5] | 0.63 | 100 | 
9 | 0.8 (≈ 1.82 µM) | CC1(C)OC(c2ccc(Cl)cc2Cl)C(Cn2cncn2)(c2ccc(Cl)cc2)O1 (stereo not shown) [Compound 39, 4-(4-chlorophenyl)-5-(2,4-dichlorophenyl)-2,2-dimethyl-4-(1H-1,2,4-triazol-1-yl)methyl-1,3-dioxolane] | 5 |  | 
10 | 1.6 (≈ 4.49 µM) | CCCC1OC(=O)OC1(Cn1cncn1)c1ccc(Cl)cc1Cl (stereo not shown) [Compound 12] |  |  | 
11 |  | Cc1ccc(C2OC(=O)OC2(Cn2cncn2)c2ccc(C)cc2)cc1 (stereo not shown) [Compound 11] | 1.25 |  | 
12 | 3.1 (≈ 8.38 µM) | Cc1ccc(C2OC(=O)OC2(Cn2cncn2)c2ccccc2Cl)cc1 (stereo not shown) [Compound 15] | 0.63 |  | 
13 | 0.1 (≈ 0.225 µM) | O=S1OC(c2ccc(Cl)cc2Cl)C(Cn2cncn2)(c2ccc(Cl)cc2)O1 (single isomer, unassigned) [Compound 27B] | 0.02 | 75 | 
14 | 0.1 (≈ 0.256 µM) | O=C1OC(c2ccccc2)C(Cn2cncn2)(c2ccc(Cl)cc2Cl)O1 (stereo not shown) [Compound 3] |  |  | 
15 | 0.2 (≈ 0.471 µM) | O=C1OC(c2ccc(Cl)cc2)C(Cn2cncn2)(c2ccc(Cl)cc2Cl)O1 (single isomer, unassigned) [Compound 19] | 0.04 | 86 | 
16 | 0.1 (≈ 0.245 µM) | O=C1OC(c2ccc(F)cc2)C(Cn2cncn2)(c2ccc(Cl)cc2Cl)O1 (stereo not shown) [Compound 1, 4-(2,4-dichlorophenyl)-5-(4-fluorophenyl)-2-oxo-4-(1H-1,2,4-triazol-1-yl)methyl-1,3-dioxolane] | 0.31 | 87.5 | 
17 | 0.2 (≈ 0.54 µM) | CCCCC1OC(=O)OC1(Cn1cncn1)c1ccc(Cl)cc1Cl (stereo not shown) [Compound 4] |  |  | 
